# Results taken from patent US7795427B2, “Methods for inhibiting osteoclast differentiation, formation, or function and for increasing bone mass” (New York University, priority 2006, dated 2010).
# “Also recorded” adds a separate entry of the source.
# How the values were obtained:
# PU.1 mRNA = assay: RT-PCR of PU.1 mRNA in osteoclast precursors; assay type: cell-based, mouse; settings: DPCPX 1 μM, M-CSF and RANKL, 7 days
# Source text: (§1) FIG. 7. […] I.D. NO: 21); c-Fos antisense [NT]. I.D. NO: 22); PU.1.- sense [NT]. I.D. NO: 23); PU.1 antisense [NT]. […] I.D. NO: 10).
# bone marrow cells = assay: RANKL-induced osteoclast formation from bone marrow cells (TRAP-positive MNC count); assay type: cell-based, mouse; settings: for osteoclast formation: M-CSF and RANKL
# Source text: FIG. 1. Effect of DPCPX on osteoclast formation by bone marrow cells. […] After 7 days cells were fixed and stained for TRAP, and the number of TRAP-positive MNCs per well was scored. (Similar results were obtained in three independent experiments). Bone marrow cells were isolated from 5- to 8-wk-old C57BL/6 female mice. Femurs and tibiae were aseptically removed and dissected free of adherent soft tissues. The bone ends were cut, and the marrow cavity was flushed out with medium αMEM from one end of the bone using a sterile 21-gauge needle. The bone marrow suspension was carefully agitated with a plastic Pasteur pipette to obtain a single-cell suspension. The cells were washed twice and resuspended (3.75×10^5 cells/ml) in α MEM containing 10% FBS, and this suspension was added to 24-well plates (500 μl/well). To each of these wells an additional 500 μl of medium containing M-CSF (30 ng/ml) and RANKL (30 ng/ml) without or with various concentrations of DPCPX and N6-CPA were added. Cultures were fed every 3 days by replacing 500 μl of culture medium with an equal quantity of fresh medium and reagents. After incubation for 7 days, wells were prepared for tartrate-resistant acid phosphatase (TRAP) staining. The number of TRAP-positive multinucleated cells (MNCs) containing three or more nuclei was scored. Osteoclast formation was evaluated by quantification of Tartrate-Resistant Acid Phosphatase (TRAP)-positive multinucleated cells (MNCs) using a modification of the method of Burstone. […] TRAP is preferentially expressed at high levels in osteoclasts and is considered, especially in the mouse, to be an osteoclast marker. After incubation, cells on wells were washed in PBS, fixed in 4% paraformaldehyde for 10 min, and stained for acid phosphatase in the presence of 0.3 M sodium tartrate (Sigma-Aldrich). The substrate used was napthol AS-BI phosphate (Sigma-Aldrich). Only those cells that were strongly TRAP-positive (dark red) and have more than 3 nuclei were counted by light microscopy.
# osteoclast precursors = assay: Osteoclast formation with DPCPX added at different days of culture; assay type: cell-based, mouse
# Description: FIG. 5. DPCPX Inhibits Osteoclastogenesis by Acting on Osteoclast Precursors. […] After culture for 7 days with DPCPX, cells were stained for TRAP. Results are expressed as the mean±SEM of three cultures per variable. […] TRAP is preferentially expressed at high levels in osteoclasts and is considered, especially in the mouse, to be an osteoclast marker. After incubation, cells on wells were washed in PBS, fixed in 4% paraformaldehyde for 10 min, and stained for acid phosphatase in the presence of 0.3 M sodium tartrate (Sigma-Aldrich). The substrate used was napthol AS-BI phosphate (Sigma-Aldrich). Only those cells that were strongly TRAP-positive (dark red) and have more than 3 nuclei were counted by light microscopy. To determine at which stage DPCPX inhibits osteoclast differentiation, osteoclast precursors were incubated with M-CSF, RANKL and DPCPX was added on day 0, 3 and 6. After culture for a total of 7 days with DPCPX, TRAP-positive multinucleated cells were enumerated.
# c-Fos mRNA = assay: RT-PCR of c-Fos mRNA in osteoclast precursors; assay type: cell-based, mouse; settings: DPCPX 1 μM, M-CSF and RANKL, 7 days
# Source text: as §1
# TRAF6 = TRAF6 level in cells under A1 receptor blockade (other studies, data not shown); assay type: cell-based; settings: adenosine A1 receptors blocked by DPCPX (data not shown)
# [1] = system: ovariectomized C57BL/6 mice; assay: Bone loss due to ovariectomy (microCT); assay type: in vivo, mouse; settings: OVX C57BL/6 mice, DPCPX 50 mg/kg/d oral in water, 5 weeks
# Description: FIG. 12. Effects of the A1R Antagonist DPCPX on Bone Loss Due to Ovariectomy. […] Data are expressed as percent change relative to sham-operated vehicle-treated control mice. 6 Week old C57bl/6 female mice received ovariectomy or a sham procedure in which the ovaries were exteriorized but not removed. Mice were sacrificed 5 weeks after the surgical procedure. Mice were treated with either water alone or DPCPX dissolved in water and adjusted, based on the weight of the animals, to a dose of 50 mg/kg/d. Femoral μCT was measured as described (Hildebrand […] new method for the model-independent assessment of thickness in three-dimensional images. J Microsc 1997; 185:67-75) by using a MS-8 (MS-8, GE Healthcare, London, Ontario, Canada) at 18 μm isotropic resolution-scans calibrated by air, water and a mineral standard material phantom/Parker algorithm for digital reconstruction.
# [2] = system: RANKL-induced NF-κB signaling; assay: RANKL-induced NF-κB signaling in osteoclast precursors (Western blot of cytoplasmic and nuclear fractions); assay type: cell-based, mouse; set-up: dose or concentration left out as unconfirmed; settings: M-CSF and RANKL
# murine splenocytes = assay: RANKL-induced osteoclast formation by splenocytes (TRAP-positive MNC count); assay type: cell-based, mouse; settings: for osteoclast formation: M-CSF and RANKL
# Description: FIG. 4. Effect of DPCPX on osteoclast formation by Splenocytes. […] After 7 days cells were fixed and stained for TRAP, and the number of TRAP-positive MNCs per well was scored. (Similar results were obtained in three independent experiments). Splenocytes were isolated from 5- to 8-wk-old C57BL/6 female mice aspreviously described with modification. In brief, spleens were putted on top of 100 μm cell strainer in 50 ml falcon, mashed with plunger and rinsed the released cells through the strainer with 8 ml PBS. The nonadherent cells were layered on top of the lymphocyte separation medium. The cells were spin 1500 rpm for 20 minutes. The macrophages/lymphocyte white band was located about 1 cm below the top of the LSM. The PBS was aspirated until 1 ml above the band then 1 ml was removing to 50 ml Falcon including the band. To this Falcon 19 ml PBS was added and spine 1500 rpm for 15 minutes. PBS was removed and 10 ml αMEM was added. The cells were resuspended (3×10^5 cells/ml) in αMEM containing 10% FBS, and this suspension was added to 24-well plates ([…]) as described above. […] TRAP is preferentially expressed at high levels in osteoclasts and is considered, especially in the mouse, to be an osteoclast marker. After incubation, cells on wells were washed in PBS, fixed in 4% paraformaldehyde for 10 min, and stained for acid phosphatase in the presence of 0.3 M sodium tartrate (Sigma-Aldrich). The substrate used was napthol AS-BI phosphate (Sigma-Aldrich). Only those cells that were strongly TRAP-positive (dark red) and have more than 3 nuclei were counted by light microscopy.
# [3] = M-CSF and DPCPX without RANKL (data not shown)
# [4] = increasing concentrations of DPCPX added day 0 with M-CSF and RANKL (30 ng/ml each), 7 days
# [5] = DPCPX 3 days (per FIG. 8 legend)
structure (smiles),measurement,setting,value
"CCCn1c(=O)c2[nH]c(C3CCCC3)nc2n(CCC)c1=O [DPCPX, 8-cyclopentyl-1,3-dipropylxanthine]",PU.1 mRNA expression,PU.1 mRNA,does not affect
same,osteoclast formation,"bone marrow cells; DPCPX 1 nM, 7 days",significantly inhibit
same,osteoclast formation,"bone marrow cells; DPCPX 1 μM, 7 days",complete inhibition
same,TRAP-positive cells in the absence of RANKL,bone marrow cells; [3],no TRAP-positive cells were seen
same,number of TRAP-positive cells,bone marrow cells; [4],strikingly inhibited the number of TRAP-positive cells in a dose-dependent manner
same,osteoclast formation,"osteoclast precursors; DPCPX added on day 0, total culture 7 days",inhibited
same,osteoclast formation,"osteoclast precursors; DPCPX addition delayed (day 3, day 6), total culture 7 days",inhibition decreased
same,c-Fos mRNA expression,c-Fos mRNA,does not affect
same,TRAF6 in the cell,TRAF6,is lost from the cell
same,bone mass / trabecular bone volume (bone volume/total volume) following ovariectomy,[1],did not lose bone mass; also recorded: prevents ovariectomy-induced bone loss
same,cytoplasmic p50 and p65,[2]; [5],accumulate in the cytoplasm
same,nuclear translocation of p50 and p65,[2]; [5],totally prevents
same,RANKL-induced degradation of IκB,[2]; DPCPX treatment for 3 days (per FIG. 8 legend),inhibited
same,osteoclast formation,"murine splenocytes; DPCPX 1 nM, 7 days",significantly inhibited
same,osteoclast formation,"murine splenocytes; DPCPX 1 μM, 7 days",almost complete inhibition
same,TRAP-positive cells in the absence of RANKL,murine splenocytes; [3],no TRAP-positive cells were seen
same,number of TRAP-positive multinucleated cells,murine splenocytes; [4],strikingly diminished the number of TRAP-positive multinucleated cells in a dose-dependent manner
